Where a name gives a salt, the structure may show the parent alone. Read-outs that look alike come from different tables or passages of the source. Peptide text beside a SMILES is read from it. * marks the point of attachment. Cbz = O=C(OCc1ccccc1)*
What was measured:
ARID1A-KO HCT116 cells = assay: Drug library screen, cell viability (CellTiter-Glo); assay type: cell-based, human; conditions: Homo sapiens, HCT-116, 120 h, read-out: Cell viability, KO
Procedure, shortened: (§1)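 Luminescent ATP read-out (CellTiter-Glo) at day 5, normalised to solvent (DMSO) controls, in paired HCT116 lines, ARID1A knockout versus wild type. Candidates selected where KO cells fell below 40% viability and WT cells stayed above 80%.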

[1] = as above; assay type: cell-based, human; conditions: human
Procedure, shortened: as §1

[2] = HCT116 ARID1A-KO, 10 μM for 5 days, relative to cells treated with solvent (DMSO)
[3] = HCT116 ARID1A-WT, 10 μM for 5 days, relative to cells treated with solvent (DMSO), read-out: Cell viability, WT

| SMILES | viability at 10 µM (ARID1A-KO HCT116 cells; [2]) | viability at 5 days, 10 μM [1, 3] | viability [1, 3] | viability at 10 µM (ARID1A-KO HCT116 cells) | viability at 5 days, 10 μM [1] |
| --- | --- | --- | --- | --- | --- |
| CC[C@H]1/C=C/C=C/C[C@@H](C)[C@H](O)[C@@](C)(O)C(=O)[C@@H](C)[C@H](O)[C@@H](C)C(=O)[C@@H](C)[C@H](O)[C@@H](C)/C=C/C(=O)O[C@@H]2[C@H](C)[C@H](CC1)O[C@]1(CC[C@H](C)[C@H](C[C@@H](C)O)O1)[C@H]2C [Oligomycin] | 21.7% | 13.6% |  |  |  |
| CN1C(=O)[C@]2(Cc3cn([C@]45C[C@@]67SS[C@@](CO)(C(=O)N6[C@H]4Nc4ccccc45)N(C)C7=O)c4ccccc34)SS[C@@]1(CO)C(=O)N2C [Chetomin] | 4.69% |  | 4.21% |  |  |
| NC1=N/C(=C2/CCNC(=O)c3[nH]ccc32)C(=O)N1 [Debromohymenialdisine (DBH), Debromohymenialdisine] | 72.2% | 62.9% |  |  |  |
| CO[C@H]1C[C@@H]2CC[C@@H](C)[C@@](O)(O2)C(=O)C(=O)N2CCCC[C@H]2C(=O)O[C@H]([C@H](C)C[C@@H]2CC[C@@H](O)[C@H](OC)C2)CC(=O)[C@H](C)/C=C(\C)[C@@H](O)[C@@H](OC)C(=O)[C@H](C)C[C@H](C)/C=C/C=C/C=C/1C [Rapamycin] | 125% | 169% |  |  |  |
| C[C@H](NC(=O)/C(C#N)=C/c1cccc(Br)n1)c1ccccc1 [WP1066] | 20% | 15.3% |  |  |  |
| Cc1nc(Nc2ncc(C(=O)Nc3c(C)cccc3Cl)s2)cc(N2CCN(CCO)CC2)n1 [dasatinib] | 37.8% | 33.5% |  |  |  |
| NC(=O)c1ccccc1 [Benzamide] | 134% | 188% |  |  |  |
| CCn1cc(C(=O)O)c(=O)c2ccc(C)nc21 [Nalidixic acid] | 97.5% | 102% |  |  |  |
| C[C@H](CCC(=O)O)C[C@H](C)C[C@H](C)C(=O)/C=C(\O)[C@H](C)C[C@H](C)C/C=C/[C@@H](C)[C@@H](O)[C@@H](C)[C@@H](O)C[C@@H]1CC[C@@](C)([C@H]2CC[C@@](C)([C@@H](C)O)O2)O1 [Ionomycin] | 35.9% |  | 31.8% |  |  |
| CCCCCCCCCCC1=C(C)C(=O)C(OC)=C(OC)C1=O [Decylubiquinone] | 100% | 85.7% |  |  |  |
| NCC(=O)Nc1ccc(-n2nc(C(F)(F)F)cc2-c2ccc3c(ccc4ccccc43)c2)cc1 [OSU-03012] | 105% | 91.9% |  |  |  |
| CC(C)C[C@@H](C=O)NC(=O)[C@H](CC(C)C)NC(=O)[C@H](CC(C)C)NC(=O)OCc1ccccc1 [MG-132] (Cbz-Leu-Leu-Leu-aldehyde) | 2.45% |  | 3.45% |  |  |
| Nc1cccc2c1CN(C1CCC(=O)NC1=O)C2=O (stereo not shown) [lenalidomide] | 112% | 91.1% |  |  |  |
| C[C@]1(O)C[C@@H](c2nc(-c3ccc4ccc(-c5ccccc5)nc4c3)c3c(N)nccn32)C1 [OSI-906] | 79.1% | 59.1% |  |  |  |
| CC(=O)O[C@H]1C(=O)[C@@]2(C)[C@H]([C@H](OC(=O)c3ccccc3)[C@]3(O)C[C@H](OC(=O)[C@H](O)[C@@H](NC(=O)c4ccccc4)c4ccccc4)C(C)=C1C3(C)C)[C@]1(OC(C)=O)CO[C@@H]1C[C@@H]2O [Paclitaxel] | 6.42% | 4.91% |  |  |  |
| CN[C@@H]1C[C@H]2O[C@@](C)([C@@H]1OC)n1c3ccccc3c3c4c(c5c6ccccc6n2c5c31)C(=O)NC4 [Staurosporine] | 4.14% |  | 5.22% |  |  |
| CC1(C)CCC(C)(C)c2cc(NC(=O)c3ccc(C(=O)O)cc3)ccc21 [tamibarotene] | 101% | 77.3% |  |  |  |
| CCOC(=O)C(C)(C)Oc1ccc(Cl)cc1 [Clofibrate] | 111% | 110% |  |  |  |
| CC(C)(C)NC(=O)[C@H]1CC[C@H]2[C@@H]3CC[C@H]4NC(=O)C=C[C@]4(C)[C@H]3CC[C@]12C [Finasteride] | 108% | 99.6% |  |  |  |
| Cc1cc(Nc2cc(N3CCN(C)CC3)nc(/C=C/c3ccccc3)n2)n[nH]1 [ENMD-2076] | 10.1% | 9.16% |  |  |  |
| CC1=C(O)C(=O)[C@@H]2O[C@@H]2C1=O [Terreic acid] | 90.5% |  | 88.9% |  |  |
| CNC(=O)c1ccccc1Sc1ccc2c(/C=C/c3ccccn3)n[nH]c2c1 [Axitinib] | 42.6% | 36.4% |  |  |  |

| SMILES | viability at 10 µM (ARID1A-KO HCT116 cells; [2]) | viability at 5 days, 10 μM [1, 3] | viability [1, 3] | viability at 10 µM (ARID1A-KO HCT116 cells) | viability at 5 days, 10 μM [1] |
| --- | --- | --- | --- | --- | --- |
| CCCCCCCCCCC[C@@H](C[C@@H]1OC(=O)[C@H]1CCCCCC)OC(=O)[C@H](CC(C)C)NC=O [orlistat] | 86.1% | 84.6% |  |  |  |
| CC[C@@]1(O)C[C@H](O[C@H]2C[C@H](N(C)C)[C@H](O[C@H]3C[C@H](O)[C@H](O[C@H]4CCC(=O)[C@H](C)O4)[C@H](C)O3)[C@H](C)O2)c2c(cc3c(c2O)C(=O)c2c(O)cccc2C3=O)[C@H]1C(=O)OC [Aclarubicin] | 5.53% |  | 4.48% |  |  |
| CCCS(=O)(=O)Nc1ccc(F)c(C(=O)c2c[nH]c3ncc(-c4ccc(Cl)cc4)cc23)c1F [Vemurafenib] | 108% | 103% |  |  |  |
| CC[C@@]1([C@@H]2O[C@@H]([C@H]3O[C@@](O)(CO)[C@H](C)C[C@@H]3C)C[C@@H]2C)CC[C@H]([C@]2(C)CC[C@]3(C[C@H](O)[C@@H](C)[C@@H]([C@@H](C)[C@@H](OC)[C@H](C)C(=O)O)O3)O2)O1 [Monensin] |  |  |  | 3.95% | 3.45% |
| Cc1c[nH]c(-c2cnc(NCCNc3ccc(C#N)cn3)nc2-c2ccc(Cl)cc2Cl)n1 [CT99021] | 73.5% | 63.8% |  |  |  |
| CN(N=O)c1cc(O)ccc1O [Dephostatin] | 60.2% |  | 90.4% |  |  |
| CO[C@@H]1C[C@@H](C[C@H]2CC[C@H](C)[C@H]([C@@H](C)C(=O)O)O2)O[C@]2(O[C@](C)([C@H]3CC[C@@](C)([C@@H]4O[C@@H]([C@H]5O[C@@](O)(CO)[C@H](C)C[C@@H]5C)C[C@@H]4C)O3)C[C@H]2C)[C@@H]1C [Nigericin] |  |  |  | 4.01% | 3.47% |
| CC[C@]1(O)C[C@@H]2CN(CCc3c([nH]c4ccccc34)[C@@](C(=O)OC)(c3cc4c(cc3OC)N(C)[C@H]3[C@@](O)(C(=O)OC)[C@H](OC(C)=O)[C@]5(CC)C=CCN6CC[C@]43[C@@H]65)C2)C1 [Vinblastine sulfate] | 4.49% | 2.73% |  |  |  |
| CCC1(c2ccc(N)cc2)CCC(=O)NC1=O (stereo not shown) [Aminoglutethimide] | 107% | 108% |  |  |  |
| C[C@@]12C(=O)OC(=O)[C@]1(C)[C@H]1CC[C@@H]2O1 [Cantharidin] | 18.2% |  | 26.2% |  |  |
| O=C1NC(=O)c2c1c1c3ccccc3[nH]c1n1cncc21 [isogranulatimide] | 151% | 118% |  |  |  |
| CC(C)(C)c1cc(O)ccc1O [t-Butylhydroquinone (BHQ), t-Butylhydroquinone] | 96.6% | 95.4% |  |  |  |
| CC(C)C[C@@H](N)[C@H](O)C(=O)N[C@H](C(=O)N[C@H](C(=O)N[C@@H](CC(=O)O)C(=O)O)C(C)C)C(C)C [Amastatin] | 110% | 102% |  |  |  |
| O=S(=O)(c1cccc2cnccc12)N1CCCNCC1 [HA1077] | 73.8% | 155% |  |  |  |
| C[C@@H](N)[C@H]1CC[C@H](C(=O)Nc2ccncc2)CC1 [Y27632] |  | 160% |  | 98.6% |  |
| CN(C)CCCN1c2ccccc2Sc2ccc(Cl)cc21 [chlorpromazine hydrochloride] | 15.6% | 7.83% |  |  |  |
| CNC(=O)c1ccc(N2C(=S)N(c3ccc(C#N)c(C(F)(F)F)c3)C(=O)C2(C)C)cc1F [MDV3100] | 94.9% | 88.8% |  |  |  |
| C[C@]1(c2nc3c(C(N)=O)cccc3[nH]2)CCCN1 [ABT-888 (Veliparib), Veliparib] | 53.3% | 62.7% |  |  |  |
| COC[C@H]1OC(=O)c2coc3c2[C@@]1(C)C1=C(C3=O)[C@@H]2CCC(=O)[C@@]2(C)C[C@H]1OC(C)=O [Wortmannin] | 116% | 181% |  |  |  |
| Cc1cc(N)c2ccccc2[n+]1CCCCCCCCCC[n+]1c(C)cc(N)c2ccccc21 [Dequalinium] | 5.24% | 6.38% |  |  |  |
| COc1cc2c(Nc3ccc(Br)cc3F)ncnc2cc1OCC1CCN(C)CC1 [Vandetanib] | 28.9% | 14.1% |  |  |  |
| COC(=O)Nc1nc2ccc(C(=O)c3cccs3)cc2[nH]1 [Nocodazole] |  | 6.51% |  | 7.15% |  |

From patent US20220087987A1, “A METHOD FOR TREATING SWI/SNF COMPLEX-DEFICIENT CANCERS COMPRISING GLUTATHIONE (GSH) METABOLIC PATHWAY INHIBITOR” (National Cancer Center, priority 2018, published 2022)
